Measurements reported in patent publication US11261186B2, “Biaryl derivative as GPR120 agonist” (LG CHEM, LTD., priority 2014, dated 2022).

target: T1, hGPR120 (Homo sapiens, UniProt Q5NUL3); test: Measurement of Activity of GPR120 Agonist (Cell-Based Assay), Calcium 5 dye fluorescence; details: CHO-K1 cells expressing Ga16 and hGPR120
T1 construct: expressed in transfected cells; host or cells: CHO-K1
T1 sequence (Q5NUL3 1-361): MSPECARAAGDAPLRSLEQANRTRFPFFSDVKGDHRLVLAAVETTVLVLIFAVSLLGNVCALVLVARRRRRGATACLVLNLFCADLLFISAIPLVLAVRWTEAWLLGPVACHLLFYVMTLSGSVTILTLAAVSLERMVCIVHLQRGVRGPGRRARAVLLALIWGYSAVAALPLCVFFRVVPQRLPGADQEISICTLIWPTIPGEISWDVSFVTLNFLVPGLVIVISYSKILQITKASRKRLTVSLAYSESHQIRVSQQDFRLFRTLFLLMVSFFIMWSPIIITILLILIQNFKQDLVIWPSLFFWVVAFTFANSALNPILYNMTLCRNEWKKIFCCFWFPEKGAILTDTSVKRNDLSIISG
Outline: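 CHO-K1 cells co-expressing Gα16 and hGPR120 were seeded, cultured 18 h at 37 °C, then loaded 1 h with Calcium 5 dye. Serially diluted agonists (final 0.5% DMSO) were added and fluorescence read at Ex 485/Em 525 nm, expressed as percent relative to 1% DMSO-only wells.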

Row | EC50 [nM] | Structure (SMILES)
1 | 200 to 2000 | CC(C)CNc1ccnc(-c2cc(F)c(N3CCC(CC(=O)O)CC3)c(F)c2)n1 [Example 360, 2-[1-[2,6-difluoro-4-[4-(isobutylamino)pyrimidin-2-yl]phenyl]-4-piperidyl]acetic acid]
2 | < 200 | O=C(O)CC1CCN(c2c(F)cc(-c3cncc(C4CCCC4)n3)cc2F)CC1 [Example 363, 2-[1-[4-(6-cyclopentylpyrazin-2-yl)-2,6-difluoro-phenyl]-4-piperidyl]acetic acid]
3 | 200 to 2000 | CC(C)Cc1cncc(-c2cc(F)c(N3CCC(CC(=O)O)CC3)c(F)c2)n1 [Example 364, 2-[1-[2,6-difluoro-4-(6-isobutylpyrazin-2-yl)phenyl]-4-piperidyl]acetic acid]
4 | 200 to 2000 | CC(C)Cc1ccnc(-c2cc(F)c(N3CCC(CC(=O)O)CC3)c(F)c2)n1 [Example 365, 2-[1-[2,6-difluoro-4-(4-isobutylpyrimidin-2-yl)phenyl]-4-piperidyl]acetic acid]
5 | 200 to 2000 | CCOc1csc(-c2cc(F)c(N3CCC(CC(=O)O)CC3)c(F)c2)n1 [Example 367, {1-[4-(4-ethoxy-thiazol-2-yl)-2,6-difluoro-phenyl]-piperidin-4-yl}acetic acid]
6 | 200 to 2000 | CCOc1nc(-c2cc(F)c(N3CCC(CC(=O)O)CC3)c(F)c2)sc1C [Example 368, {1-[4-(4-ethoxy-5-methyl-thiazol-2-yl)-2,6-difluoro-phenyl]-piperidin-4-yl}acetic acid]
7 | < 200 | CCCCc1cncc(-c2cc(F)c(N3CCC(CC(=O)O)CC3)c(F)c2)n1 [Example 369, 2-[1-[4-(6-butylpyrazin-2-yl)-2,6-difluoro-phenyl]-4-piperidyl]acetic acid]
8 | 200 to 2000 | CC(C)CCc1cncc(-c2cc(F)c(N3CCC(CC(=O)O)CC3)c(F)c2)n1 [Example 370, 2-[1-[2,6-difluoro-4-(6-isopentylpyrazin-2-yl)phenyl]-4-piperidyl]acetic acid]
9 | < 200 | O=C(O)CC1CCN(c2c(F)cc(-c3ncc(F)c(OCC4CC4)n3)cc2F)CC1 [Example 372, 2-[1-[4-[4-(cyclopropylmethoxy)-5-fluoro-pyrimidin-2-yl]-2,6-difluoro-phenyl]-4-piperidyl]acetic acid]
10 | 200 to 2000 | O=C(O)CC1CCN(c2c(F)cc(-c3cccc(C4CCC4)n3)cc2F)CC1 [Example 373, 2-[1-[4-(6-cyclobutyl-2-pyridyl)-2,6-difluoro-phenyl]-4-piperidyl]acetic acid]
11 | < 200 | O=C(O)CC1CCN(c2c(F)cc(-c3cncc(C4CCC4)n3)cc2F)CC1 [Example 374, 2-[1-[4-(6-cyclobutylpyrazin-2-yl)-2,6-difluoro-phenyl]-4-piperidyl]acetic acid]
12 | 200 to 2000 | O=C(O)CC1CCN(c2c(F)cc(-c3cccc(CC4CCC4)n3)cc2F)CC1 [Example 375, 2-[1-[4-[6-(cyclobutylmethyl)-2-pyridyl]-2,6-difluoro-phenyl]-4-piperidyl]acetic acid]
13 | 200 to 2000 | O=C(O)CC1CCN(c2c(F)cc(-c3cccc(CC4CCCC4)n3)cc2F)CC1 [Example 376, 2-[1-[4-[6-(cyclopentylmethyl)-2-pyridyl]-2,6-difluoro-phenyl]-4-piperidyl]acetic acid]

Row | Structure (SMILES) | EC50 [nM]
14 | Cc1ncc(-c2cc(F)c(N3CCC(CC(=O)O)CC3)c(F)c2)nc1OC1CCC1 [Example 361, 2-[1-[4-[6-(cyclobutoxy)-5-methyl-pyrazin-2-yl]-2,6-difluoro-phenyl]-4-piperidyl]acetic acid] | 200 to 2000
15 | Cc1nsc(OC2CCC2)c1-c1cc(F)c(N2CCC(CC(=O)O)CC2)c(F)c1 [Example 366, 2-[1-[4-[5-(cyclobutoxy)-3-methyl-isothiazol-4-yl]-2,6-difluoro-phenyl]-4-piperidyl]acetic acid] | 200 to 2000
16 | O=C(O)CC1CCN(c2c(F)cc(-c3ncc(F)c(OC4CCC4)n3)cc2F)CC1 [Example 371, 2-[1-[4-[4-(cyclobutoxy)-5-fluoro-pyrimidin-2-yl]-2,6-difluoro-phenyl]-4-piperidyl]acetic acid] | < 200
